Bridge positions count the residues as written; N and C are the ends. Square brackets hold non-standard residues; d marks the D form. Peptide text beside a SMILES is read from it. I, II: the chains in the order shown. * marks the point of attachment. Palmitoyl = CCCCCCCCCCCCCCCC(=O)*; PEG3 = NCCOCCOCCOCCC(=O)O; Dap = NC[C@H](N)C(=O)O
Molecular target: T1, mouse MuSK (Mus musculus, UniProt Q61006)
T1 construct: made in house
T1 sequence (Q61006 22-494 limits assumed): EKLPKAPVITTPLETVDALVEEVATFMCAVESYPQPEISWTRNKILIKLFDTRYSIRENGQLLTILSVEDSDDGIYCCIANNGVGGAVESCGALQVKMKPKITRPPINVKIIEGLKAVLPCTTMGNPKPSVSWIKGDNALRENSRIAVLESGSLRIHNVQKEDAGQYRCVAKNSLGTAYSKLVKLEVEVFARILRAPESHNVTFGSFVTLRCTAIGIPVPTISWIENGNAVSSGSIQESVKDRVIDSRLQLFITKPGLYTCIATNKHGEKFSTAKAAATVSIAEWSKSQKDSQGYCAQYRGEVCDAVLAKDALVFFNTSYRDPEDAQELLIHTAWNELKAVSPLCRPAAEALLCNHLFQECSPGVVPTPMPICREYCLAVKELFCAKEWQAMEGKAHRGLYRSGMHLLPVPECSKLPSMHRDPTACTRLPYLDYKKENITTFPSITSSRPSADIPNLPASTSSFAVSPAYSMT
Assay: SPR binding activity test to mouse MuSK (Biacore)
Details: Table 5
Protocol: The strength of binding between MuSK and the cyclic peptides was evaluated by quantitatively measuring the binding kinetics (binding affinity (dissociation constant) KD) of the cyclic peptides to MuSK immobilized on a sensor chip via an Fc tag, using surface plasmon resonance (SPR).
According to the standard immobilization protocol provided by the manufacturer, Fc-tagged human/mouse/rat MuSK was immobilized on a Protein G chip or a Protein A chip (Cytiva). A running buffer for the monomer/dimer peptides contained 0.010 M phosphate, 0.14 M NaCl, 0.0027 M KCl, 0.05% (v/v) Tween 20, and 0.1% (v/v) DMSO. A running buffer for the monomer/dimer U-bodies contained 0.010 M phosphate, 0.14 M NaCl, 0.0027 M KCl, and 0.05% (v/v) Tween 20. A series of concentrations of each monomer peptide, dimer peptide, monomer U-body, and dimer U-body was injected as analytes. A 1:1 binding fitting analysis was applied using Biacore evaluation software, and ka, kd, and KD values were determined.
Fc-tagged human MuSK was prepared according to the procedure described in Example 1(1). In addition, Fc-tagged mouse MuSK was used by expressing a nucleotide sequence encoding the Fc-tagged mouse MuSK extracellular domain (SEQ ID NO: 34). […]
The affinity of the U-bodies and their complexes obtained as described above for MuSK of human, rat, and mouse was evaluated (binding activity test). […]

Structure (SMILES): CCCCCCCCCCCCCCCC(=O)NCCCC[C@H](NC(=O)[C@H](CNC(=O)CCOCCOCCOCCNC(=O)CNC(=O)[C@@H]1CSCC(=O)N[C@H](Cc2ccc(O)cc2)C(=O)N2CCC[C@H]2C(=O)N[C@@H](CO)C(=O)N[C@@H](Cc2ccc(O)cc2)C(=O)N[C@@H](Cc2c[nH]cn2)C(=O)N[C@@H]([C@@H](C)O)C(=O)N[C@@H](CC(N)=O)C(=O)N[C@@H](C(C)C)C(=O)N[C@@H](C(C)C)C(=O)N[C@@H](C)C(=O)N[C@@H](CO)C(=O)N[C@@H](CC(C)C)C(=O)N[C@@H](CCCCN)C(=O)N[C@@H](CCCNC(=N)N)C(=O)N1)NC(=O)CCOCCOCCOCCNC(=O)CNC(=O)[C@@H]1CSCC(=O)N[C@H](Cc2ccc(O)cc2)C(=O)N2CCC[C@H]2C(=O)N[C@@H](CO)C(=O)N[C@@H](Cc2ccc(O)cc2)C(=O)N[C@@H](Cc2c[nH]cn2)C(=O)N[C@@H]([C@@H](C)O)C(=O)N[C@@H](CC(N)=O)C(=O)N[C@@H](C(C)C)C(=O)N[C@@H](C(C)C)C(=O)N[C@@H](C)C(=O)N[C@@H](CO)C(=O)N[C@@H](CC(C)C)C(=O)N[C@@H](CCCCN)C(=O)N[C@@H](CCCNC(=N)N)C(=O)N1)C(N)=O [MuSK7-pal] (I: {CH2CO}-[dY]PSYHTNVVASLKRCG[PEG3][Dap]K(Palmitoyl)-NH2 / II: {CH2CO}-[dY]PSYHTNVVASLKRCG[PEG3]; amide I:18-II:C; thioether I:N-I:15, II:N-II:15)
- Kd: 8.8 nM

Reference: EP4722228A1, “NEW COMPOUND TARGETING MUSK AND USE THEREOF” (The University of Tokyo, priority 2023, dated 2024)
